# Measurements as given in patent US11028102B2, “Methods of using 1-O-acetylbritannilatone spiro aryl isoxazoline compounds” (priority 2017, dated 2021).
# How the values were obtained:
# [1] = system: BMMCs; experiment: MTT assay, inhibition of the growth of BMMCs (cell toxicity); assay type: cell-based; conditions: 10 μM
# Description: (§1) (1) Experimental Animal: a 6-week-old female Balb/C mouse without specific pathogens.
# (§2) (2) Extraction Process: the mouse was sacrificed by cervical dislocation. After confirming the death of the mouse, it was immersed in alcohol for 3-5 minutes. The back skin of the mouse was cut with tweezers and scissors on a clean bench. The spleen was removed and placed in a filter. The filter was placed in a petri dish containing serum-free medium. The spleen was grounded into a cell suspension having a cell concentration of 2×10^6 cells/mL. […] of lectins was added, and cell suspension was then cultured in RPMI1640 medium for 5 days. The supernatant was collected. The femur bone of the mouse was removed, and joints of the bone was cut. The bone marrow was washed into a centrifuging tube by using serum-free medium. The bone marrow containing medium was then centrifuged, and the supernatant was discarded and the pellet was red bone marrow.
# (§3) (3) Cell Culture: The cells were cultured for 4 weeks with RPMI1640, 10% Gibco FBS, 20% spleen supernatant, 1% AEPS, 1% MEM, and 1% double antibody.
# (1) Preparation of MTT Solution: 5 mg/mL MTT solution was prepared by weighing an amount of MTT ((2-(4,5-dimethyl-2-thiazolyl)-3,5-diphenyl-2H-[…]) and dissolving MMT in PBS (solvent), and the solution was then filtered using a 0.22 μm microporous membrane. The solution was light yellow and stored at −20° C.
# (2) Method: BMMCs were seeded in 96-well plates at a density of 2×10^5/mL at 100 μL per well, and the compounds of different concentrations were added. 100 μL culture medium and 100 μL PBS were used as blank control. After 7 hours, 20 μL MMT (5 mg/mL) was added to each well. The plates were then placed in an incubator (5% CO2, 37° C.) for 4 hours. After the reaction was complete, the supernatant was discarded, and 150 μL of DMSO was added to each well. After mixing, the absorbance (OD value) was measured at 490 nm using a microplate reader. Cell Viability=(ODcompounds−ODculture medium)/(ODPBS−ODculture medium)×100%
# [2] = system: Leukotriene C4 (LTC4) production in mouse bone marrow-derived mast cells (BMMCs); experiment: Inhibition of LTC4 production/release by IgE/DNP-HSA-stimulated BMMCs (ELISA); assay type: cell-based; conditions: 10 μM
# Description: as §1, §2, §3
# Principle: This experiment is based on the competitive binding of LTC4 to the LTC4-acetylcholinesterase conjugate (LTC4 tracer) to determine the amount of […]. Because the concentration of the LTC4 tracer is constant and the concentration of LTC4 is varied, the amount of LTC4 tracer bound to the LTC4 antiserum is inversely proportional to the amount of LTC4. The antibody-LTC4 complex binds to the murine monoclonal anti-rabbit IgG, while the murine monoclonal anti-rabbit IgG has previously been conjugated to the kit. After the reaction system was stabilized, the unbound reagent was washed away. Ellman's reagent (a […]) was added. […] The color depth was measured by the spectrophotometric method, and is proportional to the amount of LTC4 tracer, which is inversely proportional to the amount of LTC4.
# (a) Sample Preparation: culturing mature BMMCs, adding IgE overnight, washing with PBS three times, and then spreading in 96-well plates (1×10^6 cells/well). The test compound solutions were added to plates and the plates were incubated for 1-1.5 hours, stimulating with DNP-HSA for 15 min. The solutions were then centrifuged at 3000 rpm for 3 min at 4° C., and the supernatant was collected and diluted 5-fold with RPMI 1640 to obtain sample solution.
# (b) ELISA Kit Reaction: Adding reagents according to the kit instructions, reacting at 4° C. for 18 h, and washing with washing buffer. 200 μL of Ellman's reagent was added to each well, reacting for 40 min.
# (c) Measurement of Absorbance: The absorbance was measured at 405 nm.
SMILES,Cell Toxicity (%) [1] [%],Inhabitation Rate (%) [2] [%]
CC(=O)OCCCC(C)C1=C(C)CC2OC(=O)C3(CC(c4ccc(Cl)cc4)=NO3)C2C1=O (centres unmarked) [Compound 4c],2.95,84.4
CC(=O)OCCCC(C)C1=C(C)CC2OC(=O)C3(CC(c4ccc(C#N)cc4)=NO3)C2C1O (centres unmarked) [Compound 2e],−0.66,85.49
CC(=O)OCCCC(C)C1=C(C)CC2OC(=O)C3(CC(c4ccc(C)cc4)=NO3)C2C1O (centres unmarked) [Compound 2f],−1.06,−32.88
"C=C1C(=O)O[C@@H]2CC(C)=C([C@@H](C)CCCOC(C)=O)[C@H](O)[C@H]12 [ABL, 1-O-acetylbritannilatone]",1.15,35.21
CC(=O)OCCCC(C)C1=C(C)CC2OC(=O)C3(CC(c4ccc(O)cc4)=NO3)C2C1OC(C)=O (centres unmarked) [Compound 3j],21.95,88.7
"C=C1C(=O)OC2CC(C)=C(C(C)CCCOC(C)=O)C(OC(C)=O)C12 (centres unmarked) [OABL, 1,6-O,O-diacetylbritannilatone, reference compound]",3.46,53.24
CC(=O)OCCCC(C)C1=C(C)CC2OC(=O)C3(CC(c4ccc(C)cc4)=NO3)C2C1=O (centres unmarked) [Compound 4f],−0.66,28.77
CC(=O)OCCCC(C)C1=C(C)CC2OC(=O)C3(CC(c4ccc(O)cc4)=NO3)C2C1O (centres unmarked) [Compound 2j],−0.9,74.36
CC(=O)OCCCC(C)C1=C(C)CC2OC(=O)C3(CC(c4ccc(C)cc4)=NO3)C2C1OC(C)=O (centres unmarked) [Compound 3f],4.1,−23.48
COc1ccc(C2=NOC3(C2)C(=O)OC2CC(C)=C(C(C)CCCOC(C)=O)C(=O)C23)cc1 (centres unmarked) [Compound 4g],5.81,53.28
CC(=O)OCCCC(C)C1=C(C)CC2OC(=O)C3(CC(c4ccc(Br)cc4)=NO3)C2C1OC(C)=O (centres unmarked) [Compound 3d],9.58,89.94
CC(=O)OCCCC(C)C1=C(C)CC2OC(=O)C3(CC(c4ccncc4)=NO3)C2C1OC(C)=O (centres unmarked) [Compound 3i],9.58,88.7
CC(=O)OCCCC(C)C1=C(C)CC2OC(=O)C3(CC(c4ccc(C#N)cc4)=NO3)C2C1=O (centres unmarked) [Compound 4e],3.19,88.22
CC(=O)OCCCC(C)C1=C(C)CC2OC(=O)C3(CC(c4ccc([N+](=O)[O-])cc4)=NO3)C2C1=O (centres unmarked) [Compound 4h],5.65,92.79
CC(=O)OCCCC(C)C1=C(C)CC2OC(=O)C3(CC(c4ccc(F)cc4)=NO3)C2C1O (centres unmarked) [Compound 2b],1.47,77.46
CC(=O)OCCCC(C)C1=C(C)CC2OC(=O)C3(CC(c4ccccc4)=NO3)C2C1OC(C)=O (centres unmarked) [Compound 3a],5.98,79.15

SMILES,Cell Toxicity (%) [1] [%],Inhabitation Rate (%) [2] [%]
CC(=O)OCCCC(C)C1=C(C)CC2OC(=O)C3(CC(c4ccc(Cl)cc4)=NO3)C2C1OC(C)=O (centres unmarked) [Compound 3c],−6.22,70.16
CC(=O)OCCCC(C)C1=C(C)CC2OC(=O)C3(CC(c4ccc([N+](=O)[O-])cc4)=NO3)C2C1O (centres unmarked) [Compound 2h],20.64,87.14
CC(=O)OCCCC(C)C1=C(C)CC2OC(=O)C3(CC(c4ccc(F)cc4)=NO3)C2C1OC(C)=O (centres unmarked) [Compound 3b],−1.97,89.01
CC(=O)OCCCC(C)C1=C(C)CC2OC(=O)C3(CC(c4ccc([N+](=O)[O-])cc4)=NO3)C2C1OC(C)=O (centres unmarked) [Compound 3h],6.63,84.4
CC(=O)OCCCC(C)C1=C(C)CC2OC(=O)C3(CC(c4ccncc4)=NO3)C2C1O (centres unmarked) [Compound 2i],4.26,84.84
CC(=O)OCCCC(C)C1=C(C)CC2OC(=O)C3(CC(c4ccncc4)=NO3)C2C1=O (centres unmarked) [Compound 4i],9.09,83.53
COc1ccc(C2=NOC3(C2)C(=O)OC2CC(C)=C(C(C)CCCOC(C)=O)C(O)C23)cc1 (centres unmarked) [Compound 2g],7.37,0.91
CC(=O)OCCCC(C)C1=C(C)CC2OC(=O)C3(CC(c4ccccc4)=NO3)C2C1O (centres unmarked) [Compound 2a],5.98,69.36
COc1ccc(C2=NOC3(C2)C(=O)OC2CC(C)=C(C(C)CCCOC(C)=O)C(OC(C)=O)C23)cc1 (centres unmarked) [Compound 3g],11.12,93.19
CC(=O)OCCCC(C)C1=C(C)CC2OC(=O)C3(CC(c4ccc(F)cc4)=NO3)C2C1=O (centres unmarked) [Compound 4b],−8.44,32
CC(=O)OCCCC(C)C1=C(C)CC2OC(=O)C3(CC(c4ccc(Br)cc4)=NO3)C2C1=O (centres unmarked) [Compound 4d],−4.59,97.77
CC(=O)OCCCC(C)C1=C(C)CC2OC(=O)C3(CC(c4ccc(Cl)cc4)=NO3)C2C1O (centres unmarked) [Compound 2c],1.88,67.43
CC(=O)OCCCC(C)C1=C(C)CC2OC(=O)C3(CC(c4ccccc4)=NO3)C2C1=O (centres unmarked) [Compound 4a],0.16,21.93
CC(=O)OCCCC(C)C1=C(C)CC2OC(=O)C3(CC(c4ccc(Br)cc4)=NO3)C2C1O (centres unmarked) [Compound 2d],1.06,50.4
CC(=O)OCCCC(C)C1=C(C)CC2OC(=O)C3(CC(c4ccc(C#N)cc4)=NO3)C2C1OC(C)=O (centres unmarked) [Compound 3e],0.25,93.95
